Assay results from ChEMBL document CHEMBL1129770 (Bioorg Med Chem Lett, 1996).
Starred links: 1 amine or outer side, 2 acyl side, 3 side chain; linkers in the order of their positions; H or OH if unused. Residues, ends and D or L forms follow the SMILES beside them. Suc = O=C(CCC(=O)[*:2])[*:1]

Tests used:
[1] = target: T1, Endothelin receptor type B (Sus scrofa, UniProt P35463); experiment: Ability to inhibit [125I]ET-3 binding to the Endothelin B receptor from porcine lung membranes was evaluated; type: tissue-based
T1 sequence (P35463 whole entry): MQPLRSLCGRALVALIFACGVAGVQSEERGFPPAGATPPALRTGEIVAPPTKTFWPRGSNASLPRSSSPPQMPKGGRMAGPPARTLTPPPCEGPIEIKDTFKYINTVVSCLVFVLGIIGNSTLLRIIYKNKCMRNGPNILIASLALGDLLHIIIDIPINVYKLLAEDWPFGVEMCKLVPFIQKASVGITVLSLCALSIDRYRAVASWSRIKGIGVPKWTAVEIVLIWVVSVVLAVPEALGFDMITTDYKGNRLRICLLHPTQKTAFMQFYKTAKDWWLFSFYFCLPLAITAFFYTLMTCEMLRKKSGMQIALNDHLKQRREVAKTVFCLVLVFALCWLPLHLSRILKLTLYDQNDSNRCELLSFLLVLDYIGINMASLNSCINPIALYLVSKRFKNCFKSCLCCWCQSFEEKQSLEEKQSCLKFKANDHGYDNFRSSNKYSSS

Endothelin-1 receptor = target: T2, Endothelin-1 receptor (Sus scrofa, UniProt Q29010); experiment: Ability to inhibit [125I]ET1 binding to the Endothelin A receptor from porcine lung membranes was evaluated; type: tissue-based
T2 sequence (Q29010 whole entry): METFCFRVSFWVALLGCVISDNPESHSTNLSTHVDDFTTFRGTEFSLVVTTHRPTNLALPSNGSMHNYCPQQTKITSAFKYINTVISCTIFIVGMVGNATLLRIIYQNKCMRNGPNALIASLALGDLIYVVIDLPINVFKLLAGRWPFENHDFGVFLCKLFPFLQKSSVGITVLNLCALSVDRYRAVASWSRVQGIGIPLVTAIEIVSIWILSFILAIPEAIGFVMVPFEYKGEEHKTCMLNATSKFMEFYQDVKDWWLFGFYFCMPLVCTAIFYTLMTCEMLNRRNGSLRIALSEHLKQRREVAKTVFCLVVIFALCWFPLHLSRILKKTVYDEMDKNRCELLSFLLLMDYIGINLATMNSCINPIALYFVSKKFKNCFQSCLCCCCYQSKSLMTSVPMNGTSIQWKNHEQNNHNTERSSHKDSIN

Bos taurus = organism: Bos taurus; experiment: Ability to inhibit 3H substance P binding to bovine retina was evaluated; type: functional

For CC[C@H](C)[C@H](NC(=O)[C@H](CC(=O)O)NC(=O)[C@H](CC(C)C)NC(=O)[C@H](Cc1cnc[nH]1)NC(=O)CNC(=O)[C@H](Cc1ccccc1)NC(=O)[C@H](Cc1ccc(O)cc1)NC(=O)[C@@H](NC(=O)[C@H](C)NC(=O)[C@H](CCC(=O)O)NC(=O)CCC(=O)O)C(C)C)C(=O)N[C@H](C(=O)N[C@@H](Cc1c[nH]c2ccccc12)C(=O)O)[C@@H](C)CC (Suc-EAVYFGHLDIIW-OH), the Ki [1] was 5.3 nM and the Ki (Endothelin-1 receptor) was 2000 nM.

Cc1cc(C)cc(C(=O)N(C)[C@H](Cc2ccccc2)C(=O)N[C@@H](Cc2c[nH]c3ccccc23)C(=O)O)c1 showed a Ki [1] of 36 nM, a Ki (Endothelin-1 receptor) of 11000 nM and an IC50 (Bos taurus) of 2000 nM.

CC[C@H](C)[C@H](NC(=O)[C@H](CC(=O)O)NC(=O)[C@H](CC(C)C)NC(=O)[C@H](Cc1cnc[nH]1)NC(=O)[C@H](C)NC(=O)[C@H](Cc1ccccc1)NC(=O)[C@H](Cc1ccc(O)cc1)NC(=O)[C@@H](NC(=O)[C@H](C)NC(=O)[C@H](CCC(=O)O)NC(=O)CCC(=O)O)C(C)C)C(=O)NCC(=O)N[C@@H](Cc1c[nH]c2ccccc12)C(=O)O (Suc-EAVYFAHLDIGW-OH) gave a Ki [1] of 5200 nM and a Ki (Endothelin-1 receptor) greater than 10000 nM.

CC[C@H](C)[C@H](NC(=O)CNC(=O)[C@H](CC(C)C)NC(=O)[C@H](Cc1cnc[nH]1)NC(=O)[C@H](C)NC(=O)[C@H](Cc1ccccc1)NC(=O)[C@H](Cc1ccc(O)cc1)NC(=O)[C@@H](NC(=O)[C@H](C)NC(=O)[C@H](CCC(=O)O)NC(=O)CCC(=O)O)C(C)C)C(=O)N[C@H](C(=O)N[C@@H](Cc1c[nH]c2ccccc12)C(=O)O)[C@@H](C)CC (Suc-EAVYFAHLGIIW-OH) showed a Ki [1] of 0.25 nM and a Ki (Endothelin-1 receptor) of 96 nM.

CC[C@H](C)[C@H](NC(=O)[C@H](CC(=O)O)NC(=O)[C@H](CC(C)C)NC(=O)[C@H](Cc1c[nH]cn1)NC(=O)[C@H](C)NC(=O)[C@H](Cc1ccccc1)NC(=O)[C@H](Cc1ccc(O)cc1)NC(=O)CNC(=O)[C@H](C)NC(=O)[C@H](CCC(=O)O)NC(=O)CCC(=O)O)C(=O)N[C@H](C(=O)N[C@@H](Cc1c[nH]c2ccccc12)C(=O)O)[C@@H](C)CC (Suc-EAGYFAHLDIIW-OH) gave a Ki [1] of 0.91 nM and a Ki (Endothelin-1 receptor) of 1300 nM.

CC[C@H](C)[C@H](NC(=O)[C@H](CC(=O)O)NC(=O)[C@H](CC(C)C)NC(=O)[C@H](Cc1cnc[nH]1)NC(=O)[C@H](C)NC(=O)[C@H](Cc1ccccc1)NC(=O)[C@H](Cc1ccc(O)cc1)NC(=O)[C@@H](NC(=O)[C@H](C)NC(=O)[C@H](CCC(=O)O)NC(=O)CCC(=O)O)C(C)C)C(=O)N[C@H](C(=O)NCC(=O)O)[C@@H](C)CC (Suc-EAVYFAHLDIIG-OH) showed a Ki [1] greater than 10000 nM and a Ki (Endothelin-1 receptor) greater than 10000 nM.

CC[C@H](C)[C@H](NC(=O)[C@H](CC(=O)O)NC(=O)CNC(=O)[C@H](Cc1c[nH]cn1)NC(=O)[C@H](C)NC(=O)[C@H](Cc1ccccc1)NC(=O)[C@H](Cc1ccc(O)cc1)NC(=O)[C@@H](NC(=O)[C@H](C)NC(=O)[C@H](CCC(=O)O)NC(=O)CCC(=O)O)C(C)C)C(=O)N[C@H](C(=O)N[C@@H](Cc1c[nH]c2ccccc12)C(=O)O)[C@@H](C)CC (Suc-EAVYFAHGDIIW-OH) gave a Ki [1] of 5.9 nM and a Ki (Endothelin-1 receptor) greater than 10000 nM.

Compound CC[C@H](C)[C@H](NC(=O)[C@H](CC(=O)O)NC(=O)[C@H](CC(C)C)NC(=O)[C@H](Cc1c[nH]cn1)NC(=O)[C@H](C)NC(=O)[C@H](Cc1ccccc1)NC(=O)[C@H](Cc1ccc(O)cc1)NC(=O)[C@@H](NC(=O)[C@H](C)NC(=O)[C@H](CCC(=O)O)NC(=O)CCC(=O)O)C(C)C)C(=O)N[C@H](C(=O)N[C@@H](Cc1c[nH]c2ccccc12)C(=O)O)[C@@H](C)CC (Suc-EAVYFAHLDIIW-OH) has a Ki [1] of 0.077 nM and a Ki (Endothelin-1 receptor) of 620 nM.

O=C(N[C@@H](Cc1c[nH]c2ccccc12)C(=O)O)C1CC1c1ccccc1 (stereo not given in full) showed a Ki [1] of 16 nM.

Compound CC[C@H](C)[C@H](NC(=O)[C@H](CC(=O)O)NC(=O)[C@H](CC(C)C)NC(=O)CNC(=O)[C@H](C)NC(=O)[C@H](Cc1ccccc1)NC(=O)[C@H](Cc1ccc(O)cc1)NC(=O)[C@@H](NC(=O)[C@H](C)NC(=O)[C@H](CCC(=O)O)NC(=O)CCC(=O)O)C(C)C)C(=O)N[C@H](C(=O)N[C@@H](Cc1c[nH]c2ccccc12)C(=O)O)[C@@H](C)CC (Suc-EAVYFAGLDIIW-OH) has a Ki [1] of 1 nM and a Ki (Endothelin-1 receptor) of 250 nM.

CC[C@H](C)[C@H](NC(=O)[C@H](CC(=O)O)NC(=O)[C@H](CC(C)C)NC(=O)[C@H](Cc1cnc[nH]1)NC(=O)[C@@H]1CSSC[C@H](N)C(=O)N[C@@H](CO)C(=O)N[C@H]2CSSC[C@H](NC(=O)[C@H](CCC(=O)O)NC(=O)[C@H](CCCCN)NC(=O)[C@H](CC(=O)O)NC(=O)[C@H](CCSC)NC(=O)[C@H](CC(C)C)NC(=O)[C@H](CO)NC(=O)[C@H](CO)NC2=O)C(=O)N[C@@H](C(C)C)C(=O)N[C@@H](Cc2ccc(O)cc2)C(=O)N[C@@H](Cc2ccccc2)C(=O)N1)C(=O)N[C@H](C(=O)N[C@@H](Cc1c[nH]c2ccccc12)C(=O)O)[C@@H](C)CC [ENDOTHELIN] gave a Ki (Endothelin-1 receptor) of 0.04 nM.

With Cc1cc(C)cc(C(=O)N(C)[C@H](Cc2ccccc2)C(=O)NCCc2c[nH]c3ccccc23)c1 the Ki [1] was 5 nM and the IC50 (Bos taurus) was 800 nM.

CC[C@H](C)[C@H](NC(=O)[C@H](CC(=O)O)NC(=O)[C@H](CC(C)C)NC(=O)[C@H](Cc1cnc[nH]1)NC(=O)[C@H](C)NC(=O)[C@H](Cc1ccccc1)NC(=O)CNC(=O)[C@@H](NC(=O)[C@H](C)NC(=O)[C@H](CCC(=O)O)NC(=O)CCC(=O)O)C(C)C)C(=O)N[C@H](C(=O)N[C@@H](Cc1c[nH]c2ccccc12)C(=O)O)[C@@H](C)CC (Suc-EAVGFAHLDIIW-OH) showed a Ki [1] of 11 nM and a Ki (Endothelin-1 receptor) of 5000 nM.

With Cc1cc(C)cc(C(=O)N(C)[C@H](Cc2ccc(-c3ccccc3)cc2)C(=O)N[C@@H](Cc2c[nH]c3ccccc23)C(=O)O)c1 the IC50 (Bos taurus) was greater than 10000 nM.

For CC[C@H](C)[C@H](NC(=O)[C@H](CC(=O)O)NC(=O)[C@H](CC(C)C)NC(=O)[C@H](Cc1c[nH]cn1)NC(=O)[C@H](C)NC(=O)CNC(=O)[C@H](Cc1ccc(O)cc1)NC(=O)[C@@H](NC(=O)[C@H](C)NC(=O)[C@H](CCC(=O)O)NC(=O)CCC(=O)O)C(C)C)C(=O)N[C@H](C(=O)N[C@@H](Cc1c[nH]c2ccccc12)C(=O)O)[C@@H](C)CC (Suc-EAVYGAHLDIIW-OH), the Ki [1] was 260 nM and the Ki (Endothelin-1 receptor) was greater than 10000 nM.

CC[C@H](C)[C@H](NC(=O)CNC(=O)[C@H](CC(=O)O)NC(=O)[C@H](CC(C)C)NC(=O)[C@H](Cc1cnc[nH]1)NC(=O)[C@H](C)NC(=O)[C@H](Cc1ccccc1)NC(=O)[C@H](Cc1ccc(O)cc1)NC(=O)[C@@H](NC(=O)[C@H](C)NC(=O)[C@H](CCC(=O)O)NC(=O)CCC(=O)O)C(C)C)C(=O)N[C@@H](Cc1c[nH]c2ccccc12)C(=O)O (Suc-EAVYFAHLDGIW-OH) was tested, and the Ki [1] was 180 nM and the Ki (Endothelin-1 receptor) was greater than 10000 nM.
